The text below walks through data of US8084627B2, “Hydroxymethyl fluorescein derivatives for use as biological markers and dyes” (University of Pittsburgh-of the Commonwealth System of …, priority 2007, dated 2011).

For one series, the system named is Zebrafish embryos. As to the kind of experiment: Zebrafish embryo staining: localization and tissue permeability. It counts as in vivo. Conditions: confocal projections of head and tail, 80 μm of embryonic interior. The source says: Zebrafish embryos were stained with compound 3 and compound 4 in order to assess the localization and tissue permeability of each compound in vivo. This procedure had not previously been attempted in zebrafish embryos with an unconjugated fluorescein derivative. Therefore, the commercially available BODIPY TR methyl ester was used as a control stain since it has been successfully used for this purpose.[10] […] Yolk sacs and yolk extensions always appeared brighter than the embryos themselves (FIG. 3A-C). This is likely the result of compound accumulation within the lipidic yolk platelets that comprise almost the entire volume of the yolk.[11]
Structures containing little organic material, including scales and calcified otoliths, were not stained. Confocal sections of the dorsal midline (FIG. 3H, J, L) indicate that the notochord sheath and surrounding tissue are efficiently labeled, while the notochord vacuoles remain unstained.

The next series concerns live human cells. As to conditions: compared with Tokyo Green; cited from earlier work.
The conditions of series [1]: carboxyl group replaced with methyl group; cited from earlier work.

Regarding `COC(=O)COc1ccc(C2=[N+]3C(=Cc4ccc(-c5cccs5)n4[B-]3(F)F)C=C2)cc1` [BODIPY TR methyl ester], the “permeation of live tissue” value in the series with Zebrafish embryos was “permeate live tissue to similar extents”. In the case of `Cc1ccccc1-c1c2cc(F)c(=O)cc-2oc2cc(O)c(F)cc12` [Pennsylvania Green], the “fluorescence in live human cells” value with live human cells was “more fluorescent than Tokyo Green”. In the case of `Cc1ccccc1-c1c2ccc(=O)cc-2oc2cc(O)ccc12` [Tokyo Green], in series [1], the “quantum yield relative to fluorescein” value is on record as “no loss of quantum yield”.
